From patent US11952363B2, “Piperazine compounds for the treatment of autoimmune disease” (Hoffmann-La Roche Inc., priority 2018, dated 2024) come the findings set out here.

For orientation: inhibition means the drop in the measured response relative to a control, in per cent.

One series deals with T1, CYP2D6 (Homo sapiens, UniProt P10635).
T1 construct: tissue BD-Gentest 452117; host or cells: human liver microsomes
In words: CYP inhibition assay in human liver microsome. The format is in vitro ADME. The conditions noted are these: liver microsomes, probe dextromethorphan, 10 μM compound, dextromethorphan substrate, percentage inhibition < 0: not or weak inhibitor, read-out: CYP 2D6 inhibition % @10 μM. On the procedure: This is a high throughput screening assay used for assessment of reversible inhibition of CYP2D6 activity of test compounds in human liver microsome (HLM) in early discovery stage.
10 mM DMSO stock solutions of test compounds were diluted in DMSO to generate 2 mM intermediate stock solution. 250 nL of intermediate stock solution were transferred in duplicate into 3 separate 384 well microtitre plates (assay-ready plates). A mixture of HLM and each substrate was made up. 45 μL of HLM substrate mix was then transferred to each well of an assay ready plate and mixed. The negative (solvent) and positive control (standard inhibitor for CYP 2D6) were included in each assay ready plate. The assay ready plate was warmed to 37° C. in an incubator over 10 minutes. 5μL pre-warmed NADPH regenerating system was added to each incubation well to start the reaction. Final incubation volume was 50 μL. The assay plate then was placed back in the 37° C. incubator. After 10 minutes incubation, incubates were quenched by addition of 50 μL 100% acetonitrile containing internal standards (20 ng/mL D3-Dextrorphan). The supernatants were collected for RapidFire/MS/MS analysis.
RapidFire online solid phase extraction/sample injection system (Agilent) coupled with API4000 triple quadrupole mass spectrometer (AB Sciex) were used for sample analysis. The mobile phase composed of acetonitrile and water supplemented with 0.1% formic acid. A C4 solid phase extraction cartridge is used for sample separation. MS detection is achieved in positive ion MRM mode.
Peak areas for substrate, metabolite and internal standard are determined using the RapidFire integrator software (version 3.6.12009.12296). Peak area ratios (PAR) of metabolite and internal standard (stable-labelled metabolite) are then calculated. The measurement window for each experiment is then defined:
PAR (0% activity)=average PAR for all incubations containing concentrated inhibitor;
Par (100% activity)=average PAR for all incubations containing no inhibitor (DMSO controls);
% Activity (test inhibitor)
=[PAR(test inhibitor)-PAR(0% activity)]/[PAR(100% activity)-PAR(0% activity)];
% Inhibition (test inhibitor)=100-% Activity (test inhibitor).
Background: Liver microsomes are a subcellular fraction often used to study metabolism.

The target of another series is T2, human TLR8 (Homo sapiens, UniProt Q9NR97).
T2 sequence (Q9NR97 27-1041): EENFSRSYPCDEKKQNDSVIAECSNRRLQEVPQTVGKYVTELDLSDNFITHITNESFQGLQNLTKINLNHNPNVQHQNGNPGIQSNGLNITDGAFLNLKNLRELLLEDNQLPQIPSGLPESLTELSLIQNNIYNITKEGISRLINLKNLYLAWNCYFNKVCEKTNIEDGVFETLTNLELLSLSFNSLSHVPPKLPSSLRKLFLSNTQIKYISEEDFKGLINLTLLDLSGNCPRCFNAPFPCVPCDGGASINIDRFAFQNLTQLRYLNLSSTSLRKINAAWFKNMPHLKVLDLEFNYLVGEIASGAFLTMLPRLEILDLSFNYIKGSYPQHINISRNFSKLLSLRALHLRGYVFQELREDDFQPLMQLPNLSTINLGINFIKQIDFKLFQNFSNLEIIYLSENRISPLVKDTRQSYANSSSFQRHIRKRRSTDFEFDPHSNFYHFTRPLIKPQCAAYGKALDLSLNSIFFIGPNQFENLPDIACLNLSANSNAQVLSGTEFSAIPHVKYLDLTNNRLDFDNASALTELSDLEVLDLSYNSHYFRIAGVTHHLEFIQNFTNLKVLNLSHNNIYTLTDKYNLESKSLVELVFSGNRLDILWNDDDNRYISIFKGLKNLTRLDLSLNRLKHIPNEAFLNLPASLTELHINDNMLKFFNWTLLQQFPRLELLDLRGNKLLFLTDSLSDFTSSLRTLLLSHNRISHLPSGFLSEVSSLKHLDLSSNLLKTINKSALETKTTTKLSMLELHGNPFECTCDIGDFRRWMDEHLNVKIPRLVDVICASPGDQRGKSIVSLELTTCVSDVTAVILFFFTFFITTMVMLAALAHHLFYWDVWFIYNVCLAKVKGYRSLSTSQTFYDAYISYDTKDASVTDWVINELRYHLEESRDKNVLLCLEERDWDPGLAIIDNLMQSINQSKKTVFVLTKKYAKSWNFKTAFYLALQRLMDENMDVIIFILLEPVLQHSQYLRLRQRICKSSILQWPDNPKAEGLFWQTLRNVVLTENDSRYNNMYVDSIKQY
In words: HEK293-Blue-hTLR-8 cells assay (SEAP reporter, R848 stimulation). Format: cell-based. The conditions noted are these: HEK293-Blue-hTLR8 cells, R848 ligand, 20 hrs incubation; read-out: HEK/hTLR8 IC50. As to the method:
The following tests were carried out in order to determine the activity of the compounds of formula (I) in HEK293-Blue-hTLR-7/8/9 cells assay.
A stable HEK293-Blue-hTLR-8 cell line was purchased from InvivoGen (Cat.#: hkb-htlr8, San Diego, California, USA). These cells were originally designed for studying the stimulation of human TLR8 by monitoring the activation of NF-κB. A SEAP (secreted embryonic alkaline phosphatase) reporter gene was placed under the control of the IFN-β minimal promoter fused to five NF-κB and AP-1-binding sites. The SEAP was induced by activating NF-κB and. AP-1 via stimulating HEK-Blue hTLR8 cells with TLR8 ligands. Therefore the reporter expression was declined by TLR8 antagonist under the stimulation of a ligand, such as R848, for incubation of 20 hrs. The cell culture supernatant SEAP reporter activity was determined using QUANTI-Blue™ kit (Cat.#: rep-qb1, Invivogen, San Diego, Ca, USA) at a wavelength of 640 nm, a detection medium that tunas purple or blue in the presence of alkaline phosphatase.
HEK293-Blue-hTLR8 cells were incubated at a density of 250,000˜450,000 cells/mL in a volume of 170 μL in a 96-well plate in Dulbecco's Modified Eagle's medium (DMEM) containing 4.5 g/L glucose, 50 U/mL penicillin, […], […], 2 mM L-glutamine, 10% (v/v) heat-inactivated fetal bovine serum with addition of 20 μL test compound in a serial dilution in the presence of final DMSO at 1% and 10 μL of 60 uM R848 in above DMEM, perform incubation under 37° C. in a CO2 incubator for 20 hrs. Then 20 μL of the supernatant from each well was incubated with […] Quanti-blue substrate solution at 37° C. for 2 hrs and the absorbance was read at 620-655 nm using a spectrophotometer. The signalling pathway that TLR8 activation leads to downstream NF-κB activation has been widely accepted, and therefore similar reporter assay was modified for evaluating TLR8 antagonist.

T1 sequence (P10635 whole entry): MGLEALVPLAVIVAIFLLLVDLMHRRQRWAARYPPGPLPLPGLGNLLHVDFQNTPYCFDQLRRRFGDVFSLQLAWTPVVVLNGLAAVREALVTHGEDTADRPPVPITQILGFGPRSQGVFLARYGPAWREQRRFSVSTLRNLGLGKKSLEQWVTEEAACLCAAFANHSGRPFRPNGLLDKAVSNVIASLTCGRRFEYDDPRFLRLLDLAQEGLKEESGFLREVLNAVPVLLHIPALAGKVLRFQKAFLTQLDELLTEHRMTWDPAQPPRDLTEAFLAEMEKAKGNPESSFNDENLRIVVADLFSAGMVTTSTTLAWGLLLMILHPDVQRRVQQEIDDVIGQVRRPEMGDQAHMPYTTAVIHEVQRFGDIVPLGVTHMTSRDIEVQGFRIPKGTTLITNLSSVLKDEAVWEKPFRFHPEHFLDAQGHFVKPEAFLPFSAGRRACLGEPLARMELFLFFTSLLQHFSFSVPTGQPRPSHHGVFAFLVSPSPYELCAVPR

As for `C[C@@H]1CN(c2ccc(C#N)c3ncccc23)C[C@H](C)N1Cc1ccc(N2CCNCC2)cc1` [Example 1, 5-[(3R,5S)-3,5-Dimethyl-4-[(4-piperazin-1-ylphenyl)methyl]piperazin-1-yl]quinoline-8-carbonitrile], on CYP2D6, the inhibition at 10 min, 10 µM was 17%. Further, the IC50 on human TLR8 stood at 16 nM.

For `C[C@@H]1CN(c2ccc(C#N)c3ncccc23)C[C@@H](C)N1Cc1ccc(N2CCNCC2)cc1` [Example 2], on human TLR8, the IC50 is 32 nM.

On to `C[C@@H]1CN(c2ccc(C#N)c3ncccc23)C[C@H](C)N1Cc1ccc(N2CCNCC2)nc1` [Example 3, 5-[(3R,5S)-3,5-Dimethyl-4-[(6-piperazin-1-yl-3-pyridyl)methyl]piperazin-1-yl]quinoline-8-carbonitrile], for which the inhibition at 10 min, 10 µM on CYP2D6 is -2.5%. Further, the IC50 at human TLR8 turned out to be 31 nM.

In the case of `C[C@@H]1CN(c2ccc(C#N)c3ncccc23)C[C@H](C)N1Cc1ncc(N2CCNCC2)cn1` [Example 4, 5-[(3S,5R)-3,5-Dimethyl-4-[(5-piperazin-1-ylpyrimidin-2-yl)methyl]piperazin-1-yl]quinoline-8-carbonitrile], the IC50 on human TLR8 came to 19 nM.

As to `C[C@@H]1CN(c2ccc(C#N)c3ncccc23)C[C@H](C)N1Cc1ccc(N2CCNCC2)cn1` [Example 5, 5-[(3S,5R)-3,5-Dimethyl-4-[(5-piperazin-1-yl-2-pyridyl)methyl]piperazin-1-yl]quinoline-8-carbonitrile], the inhibition at 10 min, 10 µM on CYP2D6 was 5.5%. Further, the IC50 on human TLR8 stood at 15 nM.

Turning to `C[C@@H]1CN(c2ccc(C#N)c3ncccc23)C[C@H](C)N1Cc1ncc(N2CCN(C(=O)CN(C)C)CC2)cn1` [Example 6, 5-[(3S,5R)-4-[[5-[4-[2-(Dimethylamino)acetyl]piperazin-1-yl]pyrimidin-2-yl]methyl]-3,5-dimethyl-piperazin-1-yl]quinoline-8-carbonitrile], the inhibition at 10 min, 10 µM on CYP2D6 came to 5%. Besides, the IC50 on human TLR8 stood at 53 nM.

In the case of `C[C@@H]1CN(c2ccc(C#N)c3ncccc23)C[C@H](C)N1Cc1ccc(N2CCN(C)CC2)cn1` [Example 7, 5-[(3S,5R)-3,5-dimethyl-4-[[5-(4-methylpiperazin-1-yl)-2-pyridyl]methyl]piperazin-1-yl]quinoline-8-carbonitrile], on human TLR8, the IC50 came out at 19 nM.

For the molecule `C[C@@H]1CN(c2ccc(C#N)c3ncccc23)C[C@H](C)N1Cc1ccc(N2CC3CNCC(C2)O3)cn1` [Example 8, 5-[(3S,5R)-3,5-Dimethyl-4-[[5-(9-oxa-3,7-diazabicyclo[3.3.1]nonan-3-yl)-2-pyridyl]methyl]piperazin-1-yl]quinoline-8-carbonitrile], the inhibition at 10 min, 10 µM at CYP2D6 came out at 12.5%. Further, the IC50 on human TLR8 is 36 nM.

For the molecule `C[C@@H]1CN(c2ccc(C#N)c3ncccc23)C[C@H](C)N1Cc1ccc(N[C@@H]2CNC[C@@H]2F)cn1` [Example 9, 5-[(3R,5S)-3,5-Dimethyl-4-[[5-[[(3R,4S)-4-fluoropyrrolidin-3-yl]amino]-2-pyridyl]methyl]piperazin-1-yl]quinoline-8-carbonitrile], the inhibition at 10 min, 10 µM at CYP2D6 was -6.5%. Moreover, the IC50 at human TLR8 was found to be 22 nM.

For `C[C@@H]1CN(c2ccc(C#N)c3ncccc23)C[C@H](C)N1Cc1ccc(N2CCN(C(=O)C3CCCN3)CC2)cn1` (stereo partly drawn) [Example 10, 5-[(3R,5S)-3,5-Dimethyl-4-[[5-[4-(pyrrolidine-2-carbonyl)piperazin-1-yl]-2-pyridyl]methyl]piperazin-1-yl]quinoline-8-carbonitrile], the inhibition at 10 min, 10 µM on CYP2D6 stood at 4.5%. The IC50 at human TLR8 was found to be 52 nM.

Regarding `C[C@@H]1CN(c2ccc(C#N)c3ncccc23)C[C@H](C)N1Cc1ccc(N2CCN(C(=O)CN(C)C)CC2)cn1` [Example 11, 5-[(3S,5R)-4-[[5-[4-[2-(Dimethylamino)acetyl]piperazin-1-yl]-2-pyridyl]methyl]-3,5-dimethyl-piperazin-1-yl]quinoline-8-carbonitrile], at CYP2D6, the inhibition at 10 min, 10 µM is 23%. Further, at human TLR8, the IC50 is 35 nM.

For the molecule `C[C@@H]1CN(c2ccc(C#N)c3ncccc23)C[C@H](C)N1Cc1ccc(N2CCNCC2CO)cc1` (stereo partly drawn) [Example 12, 5-[(3R,5S)-4-[[4-[2-(Hydroxymethyl)piperazin-1-yl]phenyl]methyl]-3,5-dimethyl-piperazin-1-yl]quinoline-8-carbonitrile], the IC50 at human TLR8 turned out to be 33 nM.

For `C[C@@H]1CN(c2ccc(C#N)c3ncccc23)C[C@H](C)N1CC(=O)N1CCc2nc(N3CCNCC3)ccc2C1` [Example 13, 5-[(3R,5S)-3,5-Dimethyl-4-[2-oxo-2-(2-piperazin-1-yl-7,8-dihydro-5H-1,6-naphthyridin-6-yl)ethyl]piperazin-1-yl]quinoline-8-carbonitrile], the IC50 at human TLR8 is 21 nM.

With `C[C@@H]1CN(c2ccc(C#N)c3ncccc23)C[C@H](C)N1CC(=O)N1CCc2cc(N3CCNCC3)ccc2C1` [Example 14, 5-[(3R,5S)-3,5-Dimethyl-4-[2-oxo-2-(6-piperazin-1-yl-3,4-dihyrdo-1H-isoquinolin-2-yl)ethyl]piperazin-1-yl]quinoline-8-carbonitrile], on human TLR8, the IC50 came to 20 nM.

For `C[C@@H]1CN(c2ccc(C#N)c3ncccc23)C[C@H](C)N1CC(=O)N1CCc2ccc(N3CCNCC3)cc2C1` [Example 15, 5-[(3R,5S)-3,5-dimethyl-4-[2-pxp-2-(7-piperazin-1-yl-3,4-dihydro-1H-isoquinolin-2-yl)ethyl]piperazin-1-yl]quinoline-8-carbonitrile], the inhibition at 10 min, 10 µM at CYP2D6 worked out at 19%. Also, on human TLR8, the IC50 was found to be 46 nM.
